The target in assay [1] is Mitogen-activated protein kinase 3 (Homo sapiens) (UniProt P27361). Description: Inhibition of human full length ERK1 expressed in Escherichia coli cell assessed as substrate phosphorylation using fluorescence-labelled peptides as substrate at 0.2 uM after 90 mins by microfluidic peptide phosphorylation assay.
Assay [2] addresses Tyrosine-protein kinase BTK (Homo sapiens) (UniProt Q06187). The experiment in a line: Inhibition of human full length BTK expressed in baculovirus assessed as substrate phosphorylation using fluorescence-labelled peptides as substrate at 0.2 uM after 90 mins by microfluidic peptide phosphorylation assay.
The target in assay [3] is Protein kinase C alpha type (Homo sapiens) (UniProt P17252). As to conditions: 0.1 uM.
Description: Inhibition of human truncated PKC alpha expressed in baculovirus assessed as substrate phosphorylation using fluorescence-labelled peptides as substrate at 0.1 uM after 90 mins by microfluidic peptide phosphorylation assay
The subject of assay [4] is T1, Receptor-type tyrosine-protein kinase FLT3 (Homo sapiens), P36888 [D835Y].
T1 sequence (whole entry): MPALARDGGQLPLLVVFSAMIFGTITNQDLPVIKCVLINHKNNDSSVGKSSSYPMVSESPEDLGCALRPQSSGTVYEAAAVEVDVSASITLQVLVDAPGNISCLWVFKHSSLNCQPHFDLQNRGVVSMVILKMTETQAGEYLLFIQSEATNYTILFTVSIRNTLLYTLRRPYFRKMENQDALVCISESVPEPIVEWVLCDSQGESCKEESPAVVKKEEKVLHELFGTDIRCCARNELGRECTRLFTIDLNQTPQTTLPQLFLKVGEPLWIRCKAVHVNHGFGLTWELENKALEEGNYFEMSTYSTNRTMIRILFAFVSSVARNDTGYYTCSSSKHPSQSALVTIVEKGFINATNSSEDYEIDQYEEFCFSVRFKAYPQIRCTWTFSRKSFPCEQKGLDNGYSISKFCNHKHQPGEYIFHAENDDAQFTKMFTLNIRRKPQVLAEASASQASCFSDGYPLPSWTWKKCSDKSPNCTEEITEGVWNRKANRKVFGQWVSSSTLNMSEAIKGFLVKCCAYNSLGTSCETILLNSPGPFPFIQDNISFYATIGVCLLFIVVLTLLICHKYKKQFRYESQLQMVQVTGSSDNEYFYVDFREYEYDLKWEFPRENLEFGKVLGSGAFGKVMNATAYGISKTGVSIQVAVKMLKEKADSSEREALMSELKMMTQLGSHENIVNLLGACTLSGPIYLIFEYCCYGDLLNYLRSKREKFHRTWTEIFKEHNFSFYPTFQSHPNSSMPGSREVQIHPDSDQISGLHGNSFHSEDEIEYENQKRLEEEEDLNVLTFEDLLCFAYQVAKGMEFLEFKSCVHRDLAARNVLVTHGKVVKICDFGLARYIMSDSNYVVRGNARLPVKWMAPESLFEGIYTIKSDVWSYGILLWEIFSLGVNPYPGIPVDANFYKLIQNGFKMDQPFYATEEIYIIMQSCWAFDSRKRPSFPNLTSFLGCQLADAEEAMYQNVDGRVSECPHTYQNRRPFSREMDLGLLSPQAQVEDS
The experiment in a line: Inhibition of human FLT3 D835Y mutant catalytic domain expressed in baculovirus assessed as substrate phosphorylation using fluorescence-labelled peptides as substrate at 420 uM after 90 mins by microfluidic peptide phosphorylation assay.

For assay [5], the target named is T2, Serine/threonine-protein kinase Sgk1 (Homo sapiens) (UniProt O00141).
T2 sequence (whole entry): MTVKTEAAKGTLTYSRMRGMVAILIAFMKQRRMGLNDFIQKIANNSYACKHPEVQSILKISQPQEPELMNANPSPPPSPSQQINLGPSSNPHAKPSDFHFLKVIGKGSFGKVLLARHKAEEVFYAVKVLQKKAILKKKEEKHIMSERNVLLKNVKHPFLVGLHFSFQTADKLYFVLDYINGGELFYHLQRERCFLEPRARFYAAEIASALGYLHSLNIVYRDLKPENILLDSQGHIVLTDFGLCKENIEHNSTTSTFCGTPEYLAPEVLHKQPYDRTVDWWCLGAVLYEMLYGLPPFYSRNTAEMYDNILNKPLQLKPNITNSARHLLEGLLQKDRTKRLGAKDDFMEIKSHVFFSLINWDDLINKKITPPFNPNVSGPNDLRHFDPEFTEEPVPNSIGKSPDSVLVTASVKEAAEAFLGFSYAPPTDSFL
The experiment in a line: Inhibition of human truncated SGK1 expressed in baculovirus assessed as substrate phosphorylation using fluorescence-labelled peptides as substrate at 0.06 uM after 90 mins by microfluidic peptide phosphorylation assay.

Assay [6] addresses T3, Interleukin-1 receptor-associated kinase 4 (Homo sapiens) (UniProt Q9NWZ3).
T3 sequence (whole entry): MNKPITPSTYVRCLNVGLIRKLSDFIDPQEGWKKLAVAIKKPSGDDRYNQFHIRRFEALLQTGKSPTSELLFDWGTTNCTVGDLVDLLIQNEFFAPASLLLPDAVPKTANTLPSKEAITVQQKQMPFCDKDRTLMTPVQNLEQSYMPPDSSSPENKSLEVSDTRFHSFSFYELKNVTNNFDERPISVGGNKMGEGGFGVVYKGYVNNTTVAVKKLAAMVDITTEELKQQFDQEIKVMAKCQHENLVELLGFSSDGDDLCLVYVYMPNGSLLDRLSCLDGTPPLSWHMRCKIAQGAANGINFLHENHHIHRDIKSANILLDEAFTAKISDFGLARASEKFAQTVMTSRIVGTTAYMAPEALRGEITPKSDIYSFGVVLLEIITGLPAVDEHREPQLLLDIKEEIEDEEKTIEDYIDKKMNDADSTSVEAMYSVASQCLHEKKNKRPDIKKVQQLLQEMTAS
Description: Inhibition of human IRAK4 catalytic domain expressed in baculovirus assessed as substrate phosphorylation using fluorescence-labelled peptides as substrate at 2 uM after 90 mins by microfluidic peptide phosphorylation assay.

For assay [7], the target named is Vascular endothelial growth factor receptor 2 (Homo sapiens) (UniProt P35968). The experiment in a line: Inhibition of human KDR cytoplasmic domain expressed in baculovirus assessed as substrate phosphorylation using fluorescence-labelled peptides as substrate at 2 uM after 90 mins by microfluidic peptide phosphorylation assay.
Vascular endothelial growth factor receptor 2 (Homo sapiens), sequence (P35968 whole entry, the tested form may be a part): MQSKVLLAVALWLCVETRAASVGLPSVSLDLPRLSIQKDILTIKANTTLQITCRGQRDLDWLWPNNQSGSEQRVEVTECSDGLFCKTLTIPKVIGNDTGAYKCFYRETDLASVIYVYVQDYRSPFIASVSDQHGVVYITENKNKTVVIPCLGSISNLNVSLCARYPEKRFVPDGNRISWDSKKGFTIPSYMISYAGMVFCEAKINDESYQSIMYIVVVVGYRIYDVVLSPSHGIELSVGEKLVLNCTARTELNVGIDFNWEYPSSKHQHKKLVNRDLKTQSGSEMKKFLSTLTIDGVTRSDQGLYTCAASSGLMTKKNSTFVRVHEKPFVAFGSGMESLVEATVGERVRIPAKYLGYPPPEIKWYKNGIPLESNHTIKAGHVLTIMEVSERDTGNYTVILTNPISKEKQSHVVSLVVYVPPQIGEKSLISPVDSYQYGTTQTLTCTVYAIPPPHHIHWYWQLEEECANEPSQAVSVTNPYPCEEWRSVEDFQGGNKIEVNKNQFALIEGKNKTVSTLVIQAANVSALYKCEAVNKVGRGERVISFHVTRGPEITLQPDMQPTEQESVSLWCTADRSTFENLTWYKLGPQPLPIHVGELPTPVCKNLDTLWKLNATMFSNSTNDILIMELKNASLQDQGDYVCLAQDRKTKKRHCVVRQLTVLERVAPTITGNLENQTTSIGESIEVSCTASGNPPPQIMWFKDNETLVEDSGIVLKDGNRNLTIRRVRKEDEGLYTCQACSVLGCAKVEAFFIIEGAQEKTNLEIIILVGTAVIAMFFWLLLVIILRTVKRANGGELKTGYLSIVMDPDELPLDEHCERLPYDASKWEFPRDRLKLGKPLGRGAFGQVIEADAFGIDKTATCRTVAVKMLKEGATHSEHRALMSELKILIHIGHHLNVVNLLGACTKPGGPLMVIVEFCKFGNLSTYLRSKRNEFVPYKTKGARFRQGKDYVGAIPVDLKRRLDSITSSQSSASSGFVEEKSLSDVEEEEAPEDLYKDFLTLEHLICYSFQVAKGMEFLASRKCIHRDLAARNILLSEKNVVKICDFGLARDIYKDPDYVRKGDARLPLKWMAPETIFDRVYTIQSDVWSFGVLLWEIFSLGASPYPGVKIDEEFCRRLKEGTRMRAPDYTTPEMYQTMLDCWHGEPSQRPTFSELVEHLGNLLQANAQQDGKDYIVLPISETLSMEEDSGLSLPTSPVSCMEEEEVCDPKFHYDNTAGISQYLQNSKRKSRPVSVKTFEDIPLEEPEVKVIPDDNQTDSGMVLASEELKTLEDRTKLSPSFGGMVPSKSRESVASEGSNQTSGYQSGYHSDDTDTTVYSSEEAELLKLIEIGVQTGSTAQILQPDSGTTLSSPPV

Tyrosine-protein kinase BTK (Homo sapiens), sequence (Q06187 whole entry): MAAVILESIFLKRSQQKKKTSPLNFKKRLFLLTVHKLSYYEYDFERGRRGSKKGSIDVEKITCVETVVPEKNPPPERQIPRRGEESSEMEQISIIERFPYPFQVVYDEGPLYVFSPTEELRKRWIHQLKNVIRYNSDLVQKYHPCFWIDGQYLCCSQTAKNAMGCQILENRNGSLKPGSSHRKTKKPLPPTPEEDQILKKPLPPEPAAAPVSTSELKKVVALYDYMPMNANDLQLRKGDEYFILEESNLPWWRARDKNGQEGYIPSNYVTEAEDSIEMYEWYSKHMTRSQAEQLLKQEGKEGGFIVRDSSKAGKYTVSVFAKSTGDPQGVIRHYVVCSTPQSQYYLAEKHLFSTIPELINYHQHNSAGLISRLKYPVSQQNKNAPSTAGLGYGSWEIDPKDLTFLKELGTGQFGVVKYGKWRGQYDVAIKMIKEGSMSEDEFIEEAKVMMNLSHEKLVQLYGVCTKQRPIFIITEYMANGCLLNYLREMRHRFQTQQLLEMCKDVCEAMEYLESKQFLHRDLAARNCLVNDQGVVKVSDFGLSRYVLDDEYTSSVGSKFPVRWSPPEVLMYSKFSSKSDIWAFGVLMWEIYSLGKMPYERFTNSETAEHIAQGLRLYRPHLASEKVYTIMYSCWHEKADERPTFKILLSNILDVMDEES
Mitogen-activated protein kinase 3 (Homo sapiens), sequence (P27361 whole entry): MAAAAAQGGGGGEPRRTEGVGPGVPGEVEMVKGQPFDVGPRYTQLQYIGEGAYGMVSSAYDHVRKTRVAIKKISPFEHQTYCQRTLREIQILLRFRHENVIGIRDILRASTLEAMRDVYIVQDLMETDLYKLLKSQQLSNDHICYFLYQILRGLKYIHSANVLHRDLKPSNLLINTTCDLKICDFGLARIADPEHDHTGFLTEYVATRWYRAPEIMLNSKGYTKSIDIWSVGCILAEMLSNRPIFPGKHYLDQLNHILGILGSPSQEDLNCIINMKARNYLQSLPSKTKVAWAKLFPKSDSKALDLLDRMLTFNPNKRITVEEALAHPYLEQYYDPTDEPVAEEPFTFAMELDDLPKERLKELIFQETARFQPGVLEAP

Consider `Clc1ccc(C2(c3ccc(-c4ncnc5[nH]cnc45)cc3)CCNCC2)cc1`, for which the inhibition in assay [1] worked out at 6%; in assay [2], 0%. Regarding `C[C@H](CN(C)C)Oc1nc(Nc2cc3cccc(Cl)c3cn2)cnc1C#N`, the inhibition in assay [3] stood at 0%. With `c1nc(N2CCOCC2)c2nc[nH]c2n1`, the inhibition in assay [4] was 93%.

With `NC1(Cc2ccc(Cl)cc2)CCN(c2ncnc3[nH]ccc23)CC1`, the inhibition in assay [5] is 56%. Turning to `NC1CCN(c2ncnc3[nH]ccc23)CC1`, the inhibition is 1.5% in assay [6] and 0% in assay [7].

(Values after ChEMBL document CHEMBL3132769, “Fragment growing to retain or alter the selectivity of anchored kinase hinge-binding fragments” (Medchemcomm, 2014).)
